Consider eleven molecules from ChEMBL document CHEMBL1201862, “PubChem BioAssay data set” (2004).

Test [1] concerns the target fMet-Leu-Phe receptor (Homo sapiens, UniProt P21462). Briefly: FPR ligands, dose response (AID 519). It counts as functional.
Test [2] can be described thus: HepG2 cell cytotoxicity, dose response, cytotoxicity control, ATP luminescence, cherry-pick, activator set 2 (AID 1053143). It counts as functional, cell-based.
The nature of test [3]: ZM109 Env clade C HIV-1 fusion inhibitors, dose response, HeLa effector, CEM target cells, luciferase, cherry-pick (AID 652058). It counts as functional, cell-based.
Test [4] can be described thus: off-target signal loss in HeLa-CEM21 co-culture – HeLa F-luc CTL cells, cherry-picked, counter-screen for HIV-1 Env fusion inhibitor project, dose response (AID 652040).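 Further: potency for signal decrease marking cytotoxic or nonspecific inhibition.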 It counts as functional, cell-based.
A short description of test [5]: inhibitors of clade B AD8 Env fusion, dose response, cell-based, cherry-pick (AID 652062).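 Further: luciferase signal from cell-cell fusion driven by HIV-1 clade B AD8 Env; potency is for inhibitors of fusion seen as a drop in luminescence.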 In kind it is functional.
Test [6] can be described thus: HepG2 cell cytotoxicity, dose response, cytotoxicity control for non-replicating M. tuberculosis project (AID 489018). It counts as functional. The conditions noted are these: Mycobacterium tuberculosis.
Test [7] concerns the target Albumin (Bos taurus, UniProt P02769). Briefly: Counterscreen for inhibitors of T-cell receptor (TCR)-CD3 interaction: Fluorescence-based biochemical high throughput dose response assay to identify inhibitors of T-cell receptor (TCR)-CD3 interaction using a TAMRA-labeled BSA probe. It counts as functional.
A short description of test [8]: Vero E6 cell cytotoxicity, dose response, cytotoxicity control for non-replicating M. tuberculosis project, secondary assay (AID 492998). It counts as functional, VeroE6. Conditions: Vero C1008.
The nature of test [9]: THP-1 cell cytotoxicity, dose response, cytotoxicity control for non-replicating M. tuberculosis project (AID 489025). It counts as functional.
Test [10] in a line: inhibitors of HIV Env-driven cell fusion, dose response, cherry-pick (AID 652057). In kind it is functional, cell-based.
The target in test [11] is T1, Heat shock factor protein 1 (Mus musculus, UniProt P38532).
T1 sequence (P38532 whole entry): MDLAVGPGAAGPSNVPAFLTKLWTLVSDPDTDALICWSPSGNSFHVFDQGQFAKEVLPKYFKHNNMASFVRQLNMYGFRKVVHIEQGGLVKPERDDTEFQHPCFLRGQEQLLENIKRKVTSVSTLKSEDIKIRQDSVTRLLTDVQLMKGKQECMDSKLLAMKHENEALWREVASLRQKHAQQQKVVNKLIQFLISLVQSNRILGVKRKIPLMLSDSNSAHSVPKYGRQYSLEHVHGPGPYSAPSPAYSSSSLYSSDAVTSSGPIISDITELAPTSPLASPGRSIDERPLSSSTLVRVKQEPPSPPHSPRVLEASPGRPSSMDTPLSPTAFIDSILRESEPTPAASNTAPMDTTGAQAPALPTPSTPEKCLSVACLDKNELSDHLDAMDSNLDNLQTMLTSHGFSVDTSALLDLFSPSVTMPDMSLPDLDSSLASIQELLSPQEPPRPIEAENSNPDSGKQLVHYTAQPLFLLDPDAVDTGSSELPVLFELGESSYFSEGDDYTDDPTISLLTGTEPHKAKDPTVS
Briefly: HSF1 potentiators in luciferase reporter cells, confirmation, cell-based, NIH3T3, luminescence, dose retest (AID 435004).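 Further: stress induced by proteasome inhibitor MG132 added 30 min after compound; luciferase reporter driven by HSF1 response element in NIH3T3 cells; actives raise luminescence as potentiators of the MG132 stress response.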 It counts as functional.

The subject of test [12] is Vero. Briefly: cells. In kind it is functional, cell-based. Conditions: Chlorocebus sabaeus.
Test [13] deals with Vero. Briefly: cells. In kind it is functional. The conditions noted are these: Chlorocebus sabaeus.
Test [14] in a line: human group III sPLA2 inhibitors, dose response, biochemical, QFRET, IC50 (AID 743457).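 Further: green fluorescence rise as the enzyme cleaves BODIPY PC-A2 in liposomes; potency for inhibition of the enzyme.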
In test [15] the target is Large T antigen (Simian virus 40, UniProt P03070). In kind it is functional, Betapolyomavirus macacae.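 Further: Confirmatory-stage PubChem screen for compounds that inhibit SV40 T antigen.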
Chain of Large T antigen (P03070 whole entry): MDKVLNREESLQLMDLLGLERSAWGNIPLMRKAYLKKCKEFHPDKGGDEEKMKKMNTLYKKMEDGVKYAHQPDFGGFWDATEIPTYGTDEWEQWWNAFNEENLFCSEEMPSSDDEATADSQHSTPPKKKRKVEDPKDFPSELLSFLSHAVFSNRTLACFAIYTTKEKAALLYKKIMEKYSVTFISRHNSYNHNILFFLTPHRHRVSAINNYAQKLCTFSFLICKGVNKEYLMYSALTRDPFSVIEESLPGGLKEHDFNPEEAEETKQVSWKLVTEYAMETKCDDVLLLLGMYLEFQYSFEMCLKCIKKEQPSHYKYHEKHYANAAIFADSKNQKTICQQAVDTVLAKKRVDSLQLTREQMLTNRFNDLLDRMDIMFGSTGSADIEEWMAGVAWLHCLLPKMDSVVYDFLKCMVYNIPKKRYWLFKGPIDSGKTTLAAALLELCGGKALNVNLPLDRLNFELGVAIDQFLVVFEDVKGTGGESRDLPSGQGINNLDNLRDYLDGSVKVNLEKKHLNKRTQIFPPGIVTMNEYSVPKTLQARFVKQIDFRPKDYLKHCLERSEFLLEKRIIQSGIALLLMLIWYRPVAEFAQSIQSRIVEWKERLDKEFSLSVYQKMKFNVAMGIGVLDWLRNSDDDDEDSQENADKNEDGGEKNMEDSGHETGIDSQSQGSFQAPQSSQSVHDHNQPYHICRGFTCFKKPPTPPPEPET
Test [16] deals with T2, Histone-lysine N-methyltransferase NSD2 (Homo sapiens, UniProt O96028).
T2 sequence (O96028 whole entry): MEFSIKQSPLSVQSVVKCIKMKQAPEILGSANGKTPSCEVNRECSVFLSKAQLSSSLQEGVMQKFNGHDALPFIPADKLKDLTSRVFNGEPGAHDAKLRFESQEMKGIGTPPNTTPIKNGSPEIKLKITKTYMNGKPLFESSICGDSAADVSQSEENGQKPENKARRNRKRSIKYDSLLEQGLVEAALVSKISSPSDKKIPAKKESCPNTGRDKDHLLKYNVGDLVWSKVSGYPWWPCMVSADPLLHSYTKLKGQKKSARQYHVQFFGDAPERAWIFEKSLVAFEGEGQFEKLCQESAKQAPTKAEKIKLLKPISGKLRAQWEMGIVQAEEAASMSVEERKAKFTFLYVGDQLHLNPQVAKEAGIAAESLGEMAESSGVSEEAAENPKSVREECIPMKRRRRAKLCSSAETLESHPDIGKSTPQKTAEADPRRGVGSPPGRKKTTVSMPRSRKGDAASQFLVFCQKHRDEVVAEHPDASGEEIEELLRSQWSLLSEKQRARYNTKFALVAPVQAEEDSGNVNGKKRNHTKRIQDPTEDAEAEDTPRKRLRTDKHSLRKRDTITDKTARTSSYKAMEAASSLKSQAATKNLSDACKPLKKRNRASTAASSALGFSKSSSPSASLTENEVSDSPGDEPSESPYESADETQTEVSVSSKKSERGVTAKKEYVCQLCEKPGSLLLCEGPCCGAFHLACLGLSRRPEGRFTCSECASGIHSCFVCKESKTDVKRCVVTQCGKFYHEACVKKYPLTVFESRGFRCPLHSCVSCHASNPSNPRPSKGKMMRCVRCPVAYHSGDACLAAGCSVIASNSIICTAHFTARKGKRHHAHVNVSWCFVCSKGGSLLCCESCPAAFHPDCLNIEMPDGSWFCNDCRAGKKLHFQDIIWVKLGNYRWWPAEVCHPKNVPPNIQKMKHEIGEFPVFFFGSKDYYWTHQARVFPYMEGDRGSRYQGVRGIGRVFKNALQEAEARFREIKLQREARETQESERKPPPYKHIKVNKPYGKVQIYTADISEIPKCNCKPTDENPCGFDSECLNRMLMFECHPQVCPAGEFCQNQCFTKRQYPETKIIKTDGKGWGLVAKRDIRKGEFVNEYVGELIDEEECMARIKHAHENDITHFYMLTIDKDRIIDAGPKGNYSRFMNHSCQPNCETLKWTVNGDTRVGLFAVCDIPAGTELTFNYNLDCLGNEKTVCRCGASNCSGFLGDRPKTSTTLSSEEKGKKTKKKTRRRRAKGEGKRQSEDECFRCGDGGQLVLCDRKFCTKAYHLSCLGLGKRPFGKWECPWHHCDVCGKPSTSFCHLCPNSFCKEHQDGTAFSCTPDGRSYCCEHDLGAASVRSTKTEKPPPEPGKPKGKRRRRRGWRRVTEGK
In kind it is biochemical.

Test [17] has as its target DNA repair protein RAD52 homolog (Homo sapiens, UniProt P43351). In kind it is functional, biochemical.
Test [18] addresses T3, Protein skinhead-1 (Caenorhabditis elegans, UniProt P34707).
T3 sequence (P34707 whole entry): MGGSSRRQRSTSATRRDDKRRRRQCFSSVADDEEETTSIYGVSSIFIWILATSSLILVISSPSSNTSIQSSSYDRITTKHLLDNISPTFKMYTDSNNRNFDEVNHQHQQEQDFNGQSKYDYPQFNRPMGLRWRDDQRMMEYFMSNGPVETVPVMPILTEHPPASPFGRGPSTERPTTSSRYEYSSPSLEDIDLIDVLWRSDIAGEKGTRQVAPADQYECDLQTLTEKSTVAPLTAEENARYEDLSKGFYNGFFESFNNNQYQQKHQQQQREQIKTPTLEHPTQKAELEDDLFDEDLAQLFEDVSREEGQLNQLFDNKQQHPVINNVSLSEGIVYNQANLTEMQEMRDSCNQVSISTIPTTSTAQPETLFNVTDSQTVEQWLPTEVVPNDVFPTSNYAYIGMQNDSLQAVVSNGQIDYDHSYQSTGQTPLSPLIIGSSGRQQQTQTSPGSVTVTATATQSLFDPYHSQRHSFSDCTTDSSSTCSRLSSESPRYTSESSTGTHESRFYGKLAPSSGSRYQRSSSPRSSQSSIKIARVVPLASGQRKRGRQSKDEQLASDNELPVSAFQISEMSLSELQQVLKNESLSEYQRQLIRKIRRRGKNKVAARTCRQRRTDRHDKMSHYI
In kind it is functional.

In test [19] the target is Fructose-bisphosphate aldolase (Mycobacterium tuberculosis, UniProt P9WQA3). Briefly: Fluorescence-based biochemical high throughput dose response assay for inhibitors of the fructose-bisphosphate aldolase (FBA) of M. tuberculosis. In kind it is functional.
Chain of Fructose-bisphosphate aldolase (P9WQA3 whole entry): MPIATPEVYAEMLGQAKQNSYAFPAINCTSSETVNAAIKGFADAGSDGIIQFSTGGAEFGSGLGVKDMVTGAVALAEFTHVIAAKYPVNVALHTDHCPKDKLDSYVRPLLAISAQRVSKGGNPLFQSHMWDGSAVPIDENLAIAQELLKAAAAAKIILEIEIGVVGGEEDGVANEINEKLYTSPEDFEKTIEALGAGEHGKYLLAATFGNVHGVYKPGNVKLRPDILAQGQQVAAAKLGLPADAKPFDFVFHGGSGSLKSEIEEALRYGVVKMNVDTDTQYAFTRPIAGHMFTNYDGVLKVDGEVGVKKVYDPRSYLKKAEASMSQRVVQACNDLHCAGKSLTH
Test [20] in a line: cytotoxicity in OVCAR8 ovarian cancer cells, dose response, PAX8 project, cell-based, plate reader, dry powder samples (AID 743197). In kind it is functional. The conditions noted are these: OVCAR-8.
A short description of test [21]: NIH:OVCAR-3 ovarian cancer cell cytotoxicity, dose response, PAX8 inhibitor project, plate reader, dry powder samples (AID 743044). In kind it is functional, cell-based.
Test [22] has as its target Paired box protein Pax-8 (Homo sapiens, UniProt Q06710). Briefly: inhibitors of PAX8-driven TPO luciferase reporter, dose response, RMG-I cells, cherry-pick (AID 687027).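 Further: luciferase reporter driven by Pax8 target thyroperoxidase promoter measured by SteadyGlo luminescence.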 In kind it is functional, cell-based.
Test [23] in a line: IGROV1 ovarian cancer cell cytotoxicity, dose response, PAX8 inhibitor project, plate reader, dry powder samples (AID 743043). Conditions: IGROV-1. In kind it is functional, cell-based.
A short description of test [24]: Late stage assay provider results from the probe development effort to identify selective inhibitors of heat shock protein 90 (HSP90): Absorbance-based cell proliferation assay in MCF7 cells. In kind it is functional.
The nature of test [25]: Late stage assay provider results from the probe development effort to identify selective inhibitors of heat shock protein 90 (HSP90): Absorbance-based cell proliferation assay in SKBR3 cells. It counts as functional. The conditions noted are these: SK-BR-3.

Calls of active or inactive are those of the source.

Chain of Albumin (P02769 whole entry): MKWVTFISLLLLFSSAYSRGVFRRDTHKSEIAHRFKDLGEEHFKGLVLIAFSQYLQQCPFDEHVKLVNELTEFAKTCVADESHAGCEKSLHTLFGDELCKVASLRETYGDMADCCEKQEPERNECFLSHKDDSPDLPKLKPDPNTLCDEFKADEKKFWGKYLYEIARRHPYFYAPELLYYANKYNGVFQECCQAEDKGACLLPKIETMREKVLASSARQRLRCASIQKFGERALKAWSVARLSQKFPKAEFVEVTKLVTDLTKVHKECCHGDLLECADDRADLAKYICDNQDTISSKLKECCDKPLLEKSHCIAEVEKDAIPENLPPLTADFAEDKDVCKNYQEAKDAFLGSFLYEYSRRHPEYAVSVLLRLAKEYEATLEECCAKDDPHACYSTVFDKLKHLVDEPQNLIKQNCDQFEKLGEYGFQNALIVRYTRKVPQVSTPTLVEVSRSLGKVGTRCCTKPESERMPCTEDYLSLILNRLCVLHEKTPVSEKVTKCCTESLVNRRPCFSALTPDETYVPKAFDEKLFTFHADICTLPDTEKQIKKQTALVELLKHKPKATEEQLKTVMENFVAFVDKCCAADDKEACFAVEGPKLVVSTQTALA
Chain of fMet-Leu-Phe receptor (P21462 whole entry): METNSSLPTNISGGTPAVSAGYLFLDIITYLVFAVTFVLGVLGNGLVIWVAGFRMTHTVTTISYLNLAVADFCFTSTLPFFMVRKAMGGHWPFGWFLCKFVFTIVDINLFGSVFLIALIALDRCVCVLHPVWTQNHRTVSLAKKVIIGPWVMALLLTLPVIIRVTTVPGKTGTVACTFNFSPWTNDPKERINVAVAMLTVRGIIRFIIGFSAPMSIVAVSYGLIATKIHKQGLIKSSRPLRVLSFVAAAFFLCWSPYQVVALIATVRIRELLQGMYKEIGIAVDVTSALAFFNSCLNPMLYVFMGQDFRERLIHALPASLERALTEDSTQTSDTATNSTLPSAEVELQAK
Chain of DNA repair protein RAD52 homolog (P43351 whole entry): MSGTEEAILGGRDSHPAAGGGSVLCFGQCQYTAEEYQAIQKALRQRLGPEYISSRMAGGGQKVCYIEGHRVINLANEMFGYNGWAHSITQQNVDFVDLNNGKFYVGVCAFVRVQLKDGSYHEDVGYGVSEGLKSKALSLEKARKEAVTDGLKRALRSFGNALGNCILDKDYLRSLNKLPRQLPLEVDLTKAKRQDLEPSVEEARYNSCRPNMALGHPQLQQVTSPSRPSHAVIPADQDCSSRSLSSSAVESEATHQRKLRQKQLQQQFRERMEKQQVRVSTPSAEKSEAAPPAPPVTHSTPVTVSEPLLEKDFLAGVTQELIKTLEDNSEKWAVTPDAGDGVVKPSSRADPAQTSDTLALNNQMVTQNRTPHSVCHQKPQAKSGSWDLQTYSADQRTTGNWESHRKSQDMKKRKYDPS
Chain of Paired box protein Pax-8 (Q06710 whole entry): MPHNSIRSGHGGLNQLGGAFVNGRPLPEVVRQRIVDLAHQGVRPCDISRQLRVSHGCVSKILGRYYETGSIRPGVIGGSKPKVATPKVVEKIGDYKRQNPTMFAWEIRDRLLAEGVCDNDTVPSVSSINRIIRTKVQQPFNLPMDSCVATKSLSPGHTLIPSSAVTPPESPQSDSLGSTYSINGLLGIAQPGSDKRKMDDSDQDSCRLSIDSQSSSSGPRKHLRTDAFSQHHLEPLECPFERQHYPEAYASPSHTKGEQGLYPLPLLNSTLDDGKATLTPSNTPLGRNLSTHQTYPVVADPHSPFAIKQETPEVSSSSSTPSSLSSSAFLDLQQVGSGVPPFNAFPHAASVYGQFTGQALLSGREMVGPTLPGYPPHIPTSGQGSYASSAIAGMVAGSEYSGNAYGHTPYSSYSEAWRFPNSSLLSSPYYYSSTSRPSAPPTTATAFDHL

On to `CCc1cc2c(=O)c(-c3nc4ccccc4n3C)c(COCC(=O)O)oc2cc1OC(=O)C(C)(C)C`, for which the Ki in test [1] is > 66.7 µM (inactive).
As to `COc1ccc(Nc2ccnc(Nc3ccc(OC)cc3)n2)cc1`, the AC50 in test [2] was 26 µM (active).
`CC1=NN(C(=O)c2ccccc2)C(O)(c2ccc(Br)cc2)C1` (stereo unspecified): the concentration at half-maximal activity (AC50) in test [3] is 8 µM (active); in [4] it was 21.6 µM (active); in test [5], 42.2 µM (active); in [10] it was 9.38 µM (active). Moreover, the results for the CC50 in [6], in test [8] and in [9] were > 20 µM (active), > 20 µM (active) and 22.8 µM (active), respectively. Also, the IC50 in test [7] is > 94.2 µM (inactive).
Regarding `CCOc1ccc(C(=O)CCC(=O)NNC(=O)c2ccccc2O)cc1`, the IC50 in [7] was > 94.1 µM (inactive).
As to `O=C(Nc1ccc(Cl)cn1)c1ccc([N+](=O)[O-])o1`, in [11], the EC50 is 20.8 µM (active). In addition, the AC50 in test [2] was 26 µM (active). In test [12], the IC50 is > 25 µM (active). In addition, in test [13], the cytotoxic concentration (CC50) is 16.9 µM (active).
On to `CNc1nn(-c2cccc(Cl)c2)nc1N`, for which the IC50 in test [14] was > 122 µM (inactive); in test [15], 29.9 µM (active). For the same molecule, the Ki in test [1] was > 66.7 µM (inactive).
On to `Cc1c(C)n(Cc2ccccc2)c2ccc(C(=O)OCCN(C)C)cc12`, for which the AC50 in [16] was > 20 µM (inactive); in test [17] it was 14 µM (active). In addition, the IC50 in [18] was 58.2 µM (inactive).
`CCc1c(C)nc2c(-c3ccccc3)cnn2c1O`: the IC50 in test [14] is > 122 µM (inactive); in [19], 3.39 µM (active).
Regarding `COc1ccccc1S(=O)(=O)N(C)C[C@H]1Oc2cc(C#CCC3CCCC3)ccc2S(=O)(=O)N([C@H](C)CO)C[C@H]1C`, the AC50 is 64 µM (active) in test [20], 35.5 µM (active) in [21], 4.83 µM (active) in test [22] and 55.4 µM (active) in test [23].
In the case of `N#Cc1cc2ccc(OCc3cccc(C(=O)O)c3)cc2oc1=O`, the IC50 in test [24] and in test [25] was > 100 µM (inactive) throughout.
For the molecule `COC(=O)c1cccc(COc2ccc3cc(C#N)c(=O)oc3c2)c1`, the IC50 in test [24] and in [25] was > 100 µM (inactive) in each case.
